Results from patent US11299447B2, “Method for isolating a carboxylic acid from an aqueous solution” (PURAC BIOCHEM BV, priority 2011, dated 2022).
Each block holds one compound with its values, some of them ahead of it.

Tests used:
Type in all cases: physicochemical
[1] = Solvent solubility in aqueous MgCl2 solution (gas chromatography of aqueous phase)
Method: Hereafter, the stirring was stopped, the phases were allowed to separate and a sample was taken from the aqueous bottom phase. The concentration of solvent in this sample was determined by gas chromatography.

[2] = Extraction of different types of polycarboxylic acids; details: for DBE: distribution ratio in back extraction; for DFE: distribution ratio in forward extraction, feed 15 wt. % MgCl2
Description: These tables also give the concentration ratio, which is the ratio between the acid concentration in the product and the acid concentration in the feed.

[3] = Stability of extraction solvent in contact with 2-hydroxy butyric acid feed solution (gas chromatography); details: 60° C.
Method: This experiment was conducted to compare the stability of two solvents, MIBK and Isoamyl alcohol in contact with the 2-hydroxy butyric acid feed solution prepared by adding 340 g of crystalline hydroxy butyric acid to 720 g water and mixing to complete dissolution. The thus prepared feed solution comprised 32 wt % of hydroxy butyric acid.
For each solvent a closed glass reactor was filled with 20 g of solvent and 20 g of the hydroxy butyric acid feed solution, put in an oven to maintain a temperature of 60° C. and shaken continuously. After 3 hours, 24 hours (1 day) and 168 hours (1 week) the shaking was stopped for 1 hour to allow the phases to settle, a sample was taken from the solvent top layer, and the composition of the solvent top layer analyzed by gas chromatography.

[4] = Lactic acid distribution ratio MIBK/aqueous MgCl2 solution; details: initial lactic acid 20 wt %
Description: Forward extraction and back extraction as used in the method of the invention are based on the difference in solubility of the carboxylic acid in water and the organic solvent at different temperatures. The solubility of a compound in one solvent relative to another solvent can be expressed in terms of the distribution ratio (DR). This ratio gives an indication how a compound will be distributed over the aqueous phase (e.g. the aqueous mixture) and the organic phase (e.g. the organic liquid) in a two-phase system at equilibrium. The distribution ratio may be defined as the ratio of the carboxylic acid concentration dissolved in the organic phase ([carboxylic acid]organic) over the concentration of the carboxylic acid dissolved in water ([carboxylic acid]water), provided that the two phases are in equilibrium with each other: DR=[carboxylic acid]organic/[carboxylic acid]water (1)
The resulting two phase system was stirred at 20° C. or 60° C. for 30 minutes with sufficient speed to ensure that both phases are well dispersed. Hereafter, the stirring is stopped, the phases were allowed to separate and samples were taken from both phases. The concentration of lactic acid (wt %) in these samples was determined by potentiometric titration. Hereafter the distribution ratio was calculated as the ratio of the lactic acid concentration (wt %) in the MIBK organic solvent phase divided by the lactic acid concentration (wt %) in the aqueous phase.

[5] = Table 2.2, MgCl2 0 wt %, 20° C.
[6] = Table 2.2, MgCl2 15 wt %, 20° C.
[7] = Table 2.2, MgCl2 30 wt %, 20° C.

SMILES: CC(C)OC(C)C [Diisopropyl ether, reference compound]
Solvent solubility [1, 5]: 1.0 wt %
Solvent solubility [1, 6]: 0.4 wt %
Solvent solubility [1, 7]: 0.7 wt %

SMILES: CC(C)CCO [Isoamyl alcohol, reference compound]
Solvent solubility [1, 5]: 2.8 wt %
Solvent solubility [1, 6]: 1.5 wt %
Solvent solubility [1, 7]: 0.6 wt %
isoamylhydroxybutyrate formed in solvent layer ([3]; 20 g solvent + 20 g 32 wt % hydroxy butyric acid feed, after 3 hours): 14.3 area %
isoamylhydroxybutyrate concentration in solvent layer ([3]; after 24 hours): 21.5 area %
isoamylhydroxybutyrate concentration in solvent layer ([3]; after 168 hours): 21.5 area %

SMILES: C=C(CC(=O)O)C(=O)O [Itaconic acid, itaconic acid]
DFE/DBE [2]: 2.64
DBE [2]: 1.07
DFE [2]: 2.83

Second part, led by results:

DFE/DBE [2]: 7.29
DBE [2]: 0.24
DFE [2]: 1.75
SMILES: O=C(O)/C=C/C(=O)O [Fumaric acid, fumaric acid]

MIBK solubility ([1]; MgCl2 0 wt %, 20° C.): 1.8 wt %
MIBK solubility ([1]; MgCl2 0 wt %, 60° C.): 1.4 wt %
MIBK solubility ([1]; MgCl2 15 wt %, 20° C.): 0.48 wt %
MIBK solubility ([1]; MgCl2 15 wt %, 60° C.): 0.20 wt %
MIBK solubility ([1]; MgCl2 30 wt %, 20° C.): 0.17 wt %
MIBK solubility ([1]; MgCl2 30 wt %, 60° C.): 0.11 wt %
Solvent solubility [1, 5]: 1.8 wt %
Solvent solubility [1, 6]: 0.5 wt %
Solvent solubility [1, 7]: 0.1 wt %
SMILES: CC(=O)CC(C)C [MIBK, methyl-isobutylketone]
changes in the purity of the solvent ([3]; 20 g solvent + 20 g 32 wt % hydroxy butyric acid feed, after 168 hours): no changes in the purity of the MIBK could be detected

Lactic acid distribution ratio ([4]; MgCl2 0 wt %, 20° C.): 0.16 wt %/wt %
Lactic acid distribution ratio ([4]; MgCl2 0 wt %, 60° C.): 0.19 wt %/wt %
Lactic acid distribution ratio ([4]; MgCl2 10.5 wt %, 20° C.): 0.33 wt %/wt %
Lactic acid distribution ratio ([4]; MgCl2 10.5 wt %, 60° C.): 0.37 wt %/wt %
Lactic acid distribution ratio ([4]; MgCl2 16.0 wt %, 20° C.): 0.49 wt %/wt %
Lactic acid distribution ratio ([4]; MgCl2 16.0 wt %, 60° C.): 0.56 wt %/wt %
SMILES: CC(O)C(=O)O (stereo not shown) [lactic acid]
